The results in this text go back to patent US12128010B2, “Semifluorinated compounds and their compositions” (NOVALIQ GMBH, priority 2015, dated 2024).

“Also recorded” adds a separate entry of the source.

Data set [1] can be described thus: Differential Scanning Calorimetry of mixtures. It counts as physicochemical. In general terms: Differential scanning calorimetry records heat flow against a reference as temperature is scanned.
Description: Differential Scanning calorimetry (DSC 1, Mettler Toledo, Greifensee, Switzerland) is used to characterize structure and phase behavior of mixtures of CF3(CF2)5—CH(CH3)—(CH2)5—CH3 and CF3(CF2)5(CH2)7CH3. DSC was employed to obtain data on transitions by temperature rising scans with heating rate of 1° C./min. Sealed standard aluminum crucibles (40 μl, Mettler Toledo) were used.
Data set [2] can be described thus: Evaporation time of mixtures. Conditions: FIG. 1, in words. It counts as physicochemical. How it is done:
The evaporation time of mixtures of the semifluorinated alkane CF3(CF2)5(CH2)7CH3 and CF3(CF2)5—CH(CH3)—(CH2)5—CH3 was evaluated. A droplet of 10 μL volume of each mixture was placed on a glass surface at room temperature. Time until evaporation was recorded by video-monitoring.

A short description of data set [3]: Refractive index of mixtures. The format is physicochemical. Conditions: FIG. 2, in words. How it is done: The refractive index of the mixtures was also determined. For topically applied ophthalmic compositions, the refractive index of the composition should preferably similar, or adapted to that of the eye and lens, for instance as close to that of physiological tear fluid as possible. If the refractive index of a composition is not similar, when applied to the surface of the eye, a patient may experience blurring or impaired vision. […] By varying the amount of this semifluorinated alkane in the mixture, it may also be feasible to adapt the composition to the requirements of the intended ophthalmic use, for instance adapting to a patient with an altered tear fluid composition and refractive index, due to an eye condition and/or age.

The next data set deals with Rabbit corneas. Kind of data set: Ex Vivo Eye Irritation Test (EVEIT), corneal healing. Here is the method: Anim., 2008 (36) p 25-32; and N. Schrage et al, Graefes Arch Clin Exp Ophthalmol 2012 (250), 1330-1340).
Method. Rabbit corneas were obtained and placed in an artificial anterior ocular chamber which was gently filled with serum-free minimal essential medium (Eagle's MEM) containing Earle's salts and HEPES buffer for nutrition. The medium was contstantly replenished by a micropump to imitate the physiological condition of the eye. The culture chambers were held at 32° C. under normal air without supplementary CO2 and >95% relative humidity. Five corneas per test substance (n=5) were used except for the postive control with which two corneas (n=2) were tested.
After 12 h of stabilization in the culture chamber, the corneas were evaluated by microscopy and corneas with intact epithelium and without opacities were selected. Four small abrasions (2.3-4.3 mm^2) were applied to the surface of the selected corneas with a cornea drill. All defects were monitored by fluorescein sodium staining (0.17% aq. solution) and microscopy.
The test substances were administered one hour after induction of the corneal erosion and were applied six times daily onto the apex of the corneas (30-50 μL every four hours). A soft-tipped cannula, with continuous suction was placed on the lowest part of the corneoscleral region within the culturing chamber to remove any excess fluid. Experiments were terminated after 3 days of application. Biomicroscopic images of the corneas were taken daily to document the corneal healing process using a phase-contrast microscope integrated camera (KY-F1030U, JVC, (Bad Vilbel, DE) mounted on a Z16 APO Microscope (Wetzlar, DE)). All defects were monitored by fluorescein sodium stains (0.17% aq. solution) with yellow green fluorescence indicating the areas of epithelial defects. Erosion sizes were determined using a software tool of the microscope (DISKUS). At the end of the 3 days, the experiment was terminated and all corneas were fixed in 3.7% formaldehyde and stained with a hematoxylin-eosin dye for microscopic evaluation. To monitor the metabolic activity of the cornea, glucose and lactate concentrations were photometrically quantified in the outflow medium from the artificial anterior chambers.

Setting [4] is: hematoxylin-eosin stained corneas after 3 days of application.

In the case of `CCCCCCC(C)C(F)(F)C(F)(F)C(F)(F)C(F)(F)C(F)(F)C(F)(F)F` (centres unmarked) [CF3—(CF2)5—CH(CH3)—(CH2)5—CH3, 2-perfluorohexyloctane], in data set [1] (in words), the “effect on melting enthalpy when present in a mixture with F6H8” value is on record as “decreased” and the “effect on melting temperature when present in a mixture with F6H8” value is listed as “significant reduction in the melting temperature”. Further, the “effect of increasing percentage on evaporation time of the mixtures” value in data set [2] is “decreases the evaporation time”. The “effect of increased content on refractive index of the mixtures” value in data set [3] is “increasing refractive index value”.
As for `CCCCCCCCC(F)(F)C(F)(F)C(F)(F)C(F)(F)C(F)(F)C(F)(F)F` [Composition 0, 1-perfluorohexyloctane], in data set [1] (DSC, heating rate 1° C./min), the “Low temperature transition Endset” value was −38.32 °C, the “Low temperature transition Onset” value is −45.47 °C, the “Low temperature transition Peak” value was −40.37 °C and the “Low temperature transition ΔH” value is -0.69 J/g. Besides, in data set [1] (DSC, heating rate 1° C./min), the “Melting transition Endset” value is −2.14 °C, the “Melting transition Onset” value is −6.33 °C and the “Melting transition Peak” value was −4.53 °C. Moreover, in data set [1] (DSC, heating rate 1° C./min, label = wt % CF3—(CF2)5—CH(CH3)—(CH2)5—CH3 in mixture with CF3(CF2)5(CH2)7CH3), the “Melting transition ΔH” value was -36.57 J/g.
With benzalkonium chloride [0.01% BAC], the “Corneal Erosion Size, Mean (SD)” value is 11.57 (0.86) mm^2 in the data set on Rabbit corneas (Day 0 (before application)); 5.91 (0.28) mm^2 with Rabbit corneas (Day 1, applied six times daily, 30-50 μL); 8.74 (7.6) mm^2 in the data set with Rabbit corneas (Day 2, applied six times daily, 30-50 μL); 17.46 (6.43) mm^2 in the data set with Rabbit corneas (Day 3, applied six times daily, 30-50 μL). In the data set with Rabbit corneas (setting [4]), the “Day 3 Histological Observations: Descemet membrane and endothelium” value is “Descemet membrane is present with intact endothelium”. Besides, the “Day 3 Histological Observations: epithelium, stroma, corneal structure” value in the data set on Rabbit corneas (setting [4]) is on record as “Severe alterations of the superficial cornea with disintegration of; also recorded: Reduced staining of background substance indicating chemical”. In the data set with Rabbit corneas (setting [4]), the “Day 3 Histological Observations: keratocytes” value is recorded as “Severe reduction in number of keratocyte cells which also appear”. For the same compound, the “course of the induced epithelial erosions/lesions” value with Rabbit corneas (over the three days of the experiment, in words) is on record as “progressive increase”.
